Laboratory results published in patent publication US9253997B2, “Alkylamine derivative” (AJINOMOTO CO., INC., priority 2010, dated 2016).

Legend:
human CaSR = human CaSR (Homo sapiens (Human), UniProt P41180); test: Assessment of CaSR agonistic activity (FLIPR Ca2+ fluorescence); type: cell-based; settings: 293E cells transfected with hCaSR/pcDNA3.1, Calcium 4 Assay Kit, 1.5 mM CaCl2 assay buffer
Description: CaSR gene was prepared according to the method described in Example 1 of WO07/55393. The resulting recombinant plasmid was used to generate human CaSR-expressing plasmid hCaSR/pcDNA3.1.
293E cells (EBNA1-expressing IIEK293 cells, ATCC No. CRL-10852) were cultured in DMEM ([…] Glucose-containing Dulbecco's modified Eagle medium, Nacalai Tesque) containing 10% bovine fetal serum in the presence of 250 μg/ml of G418. The cells were seeded on a 10 cm-diameter petri dish at 1.8×10^6 cells/15 ml, and left to stand in a CO2 incubator (5% CO2, 37° C.) for 24 hours. Thereafter, human CaSR expression plasmid hCaSR/pcDNA3.1 was transfected with transfection reagent Mirus Trans IT 293 (Takara Bio). Following static culture in a CO2 incubator for 24 hours, the cells were harvested with 10% bovine fetal serum-containing DMEM and seeded on a poly-D-lysine coat 384 well plate (Falcon) at 15,000 cells/well. Following static culture in a CO2 incubator for 24 hours, the medium was removed and the resultant was added with 50 μl/well of Ca^2+ fluorescent indicator Calcium 4 Assay Kit (Molecular Devices) dissolved in an assay buffer (146 mM NaCl, 5 mM KCl, 1 mM MgSO4, 1 mg/ml Glucose, 20 mM HEPES (PH 7.2), 1.5 mM CaCl2), and left to stand at 37° C. for an hour and then at room temperature for 30 minutes to allow intake of the indicator. The above-mentioned 384-well plate was transferred to FLIPR (Molecular Devices) and added with 12.5 μl/well of a compound dissolved in a 0.1% BSA-containing assay buffer to measure 3-minute change in the fluorescence intensity.
The difference between maximum and minimum fluorescence intensities before and after compound addition (RFU (Max-Min)) was determined by FLIPR automatic calculation. An activity rate was calculated where RFU (Max-Min) upon addition of a compound at a maximum concentration was defined 100% and RFU (Max-Min) upon addition of DMSO as a substitute for the compound at the same concentration was defined 0%. […]

[1] = system: NSAID-induced small intestine inflammation; test: Effect against NSAID-induced small intestine inflammation; type: in vivo, rat; settings: 30 minutes before loxoprofen 60 mg/kg oral, 24 hours
Description: (Method) To a non-fasting rat, Compound No. 1 or 2 (the compound described in Example 14) (10 mg/kg) or Compound No. 3 (the compound described in Example 48) (3, 10 or 30 mg/kg) was orally administered. After 30 minutes, loxoprofen (60 mg/kg) was orally administered and the rat was left for 24 hours. Thirty minutes before the autopsy, 1 ml of 1% (w/w) Evansblue dye was intravenously administered to the rat. The small intestine (from duodenum to ileum) of the animal euthanized under deep ether anesthesia was isolated and immersed in 2% formalin for 10 minutes to fix the small intestine from the serosa side. The small intestine was dissected from the opposite side of the mesentery to measure the injury area (mm^2) thereof under a 10× dissecting microscope. T-test or Dunnett's test was employed as the statistical test where p<0.05 was considered to indicate significant difference.

large intestine loop = test: Water absorption action using rat colon loop technique; type: in vivo; settings: male SD (IGS) rat colon loop, PGE2 4 μg/ml/kg i.p., compound in Tyrode's solution injected into loop, 1 hour; FIGS. 5-8
Description: (Method) Appendix and large intestine were isolated from a male SD (IGS) rat under pentobarbital anesthesia, which were ligated 5 cm below the appendix to prepare a large intestine loop. Immediately after loop preparation, PGE2 (4 μg/ml/kg, SIGMA) was intraperitoneally administered. Thirty minutes later, 2 ml of Tyrode's solution (NaCl 136.9 mM, KCl 2.7 mM, CaCl2.2H2O 1.8 mM, MgCl2.6H2O 1.04 mM, NaH2PO4.2H2O 0.04 mM, NaH2PO4.2H2O 0.04 mM, Glucose 5.55 mM, NaHCO3 11.9 mM) was injected into the prepared loop. An hour later, weight of the loop, weight of the loop after removing the fluid therefrom and the loop area were measured to calculate the weight of liquid remaining in the loop per unit area.
The above-described Compounds Nos. 1-3 and Compound No. 4 (the compound described in Example 47) were used as the test compounds while the agents were dissolved in Tyrode's solution. Remaining liquid measure per unit area (g/cm^2)=(weight of loop−weight of loop after removing fluid therefrom)/loop area.
Water absorption was assessed by calculating water regulating effect (%) according to the following formula. Water regulating effect (%)=100−(remaining liquid measure per unit area obtained with agent−average remaining liquid measure per base unit area)/(remaining liquid measure per unit area obtained with vehicle−average remaining liquid measure per base unit area)×100.

serum iPTH = test: Effect of decreasing iPTH in rat by single dose of intravenous administration; type: in vivo; settings: male SD (IGS) rat, 0.1 mg/kg, compared with cinacalcet
Description: (Method) A single dose was given to male SD (IGS) rat under pentobarbital anesthesia from a tail vein to examine the transition of serum iPTH and serum Ca concentration. Blood was taken before the administration and 5, 15, 30 and 60 minutes after the administration.
Compound No. 1 (the compound described in Example 6) was dissolved in physiological saline. Meanwhile, cinacalcet as a control substance was dissolved in PEG400: Saline=1:1 solution.

[2] = non-fasting rat, 10 mg/kg oral, FIG. 3

human CaSR, sequence (P41180 20-1078): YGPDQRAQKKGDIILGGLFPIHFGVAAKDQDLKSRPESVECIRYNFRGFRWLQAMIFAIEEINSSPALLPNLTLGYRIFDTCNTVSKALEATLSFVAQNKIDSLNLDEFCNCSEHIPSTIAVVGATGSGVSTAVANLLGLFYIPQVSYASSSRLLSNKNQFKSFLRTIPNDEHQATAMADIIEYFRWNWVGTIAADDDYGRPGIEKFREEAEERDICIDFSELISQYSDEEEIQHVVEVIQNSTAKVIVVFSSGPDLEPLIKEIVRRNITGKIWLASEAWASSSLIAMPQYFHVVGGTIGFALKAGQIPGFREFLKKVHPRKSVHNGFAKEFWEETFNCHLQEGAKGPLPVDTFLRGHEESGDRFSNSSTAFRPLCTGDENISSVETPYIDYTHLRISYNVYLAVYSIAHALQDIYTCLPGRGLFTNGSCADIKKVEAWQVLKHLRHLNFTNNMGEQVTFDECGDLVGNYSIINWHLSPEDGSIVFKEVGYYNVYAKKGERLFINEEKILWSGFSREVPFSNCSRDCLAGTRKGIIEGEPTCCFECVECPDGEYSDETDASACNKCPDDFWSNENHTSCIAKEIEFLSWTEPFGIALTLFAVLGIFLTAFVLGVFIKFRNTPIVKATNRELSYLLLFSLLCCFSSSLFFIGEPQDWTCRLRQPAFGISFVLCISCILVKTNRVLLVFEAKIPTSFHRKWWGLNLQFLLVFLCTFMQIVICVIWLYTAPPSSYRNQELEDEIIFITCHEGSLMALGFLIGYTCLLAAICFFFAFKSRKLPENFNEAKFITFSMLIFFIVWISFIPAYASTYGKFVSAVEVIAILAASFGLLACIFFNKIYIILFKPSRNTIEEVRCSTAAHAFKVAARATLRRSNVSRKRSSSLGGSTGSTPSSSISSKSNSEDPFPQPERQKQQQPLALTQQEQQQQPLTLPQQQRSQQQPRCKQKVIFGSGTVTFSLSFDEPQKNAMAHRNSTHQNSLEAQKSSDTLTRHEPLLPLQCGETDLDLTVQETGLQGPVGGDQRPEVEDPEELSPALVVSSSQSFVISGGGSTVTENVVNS

| Compound | EC50 (human CaSR) [µM] | injury area of small intestine [1, 2] | water absorption (water regulating effect) (large intestine loop) | other results |
| --- | --- | --- | --- | --- |
| N[C@@H](CCC(=O)Nc1cc(Cl)cc(S(=O)(=O)O)c1O)C(=O)NC1CCCCCC1 [Example 60, 3-[(4S)4-amino-4-(cycloheptylcarbamoyl)butanamide]-5-chloro-2-hydroxybenzene-1-sulfonic acid] | 3.4 | – | – | – |
| Cc1c(Cl)cc(S(=O)(=O)O)cc1NC(=O)NC[C@H](N)C(=O)O [Example 14, (2S)-2-amino-3-{[(3-chloro-2-methyl-5-sulfophenyl)carbamoyl]amino}propanoic acid] | 0.003 | showed a tendency to improve the injury area | promoted water absorption in a dose-depending manner | – |
| N[C@@H](CNC(=O)Nc1cc(Cl)cc(S(=O)(=O)O)c1O)C(=O)O [Example 6, (2S)-2-amino-3-{[(5-chloro-2-hydroxy-3-sulfophenyl)carbamoyl]amino}propanoic acid] | – | significantly improved the injury area | promoted water absorption in a dose-depending manner | decreasing serum iPTH (serum iPTH; FIG. 1): almost the same effect as cinacalcet; decreasing serum Ca (serum iPTH; FIG. 2): almost the same effect as cinacalcet |
| Cc1c(Cl)cc(S(=O)(=O)O)cc1NC(=S)NC[C@H](N)C(=O)O [Example 47, (2S)-2-amino-3-{[(3-chloro-2-methyl-5-sulfophenyl)carbamothioyl]amino}propanoic acid] | – | – | promoted water absorption in a dose-depending manner | – |
| N[C@@H](CCC(=O)Nc1cc(Cl)cc(S(=O)(=O)O)c1O)C(=O)N1CCOCC1 [Example 58, 3-[(4S)-4-amino-5-(morpholine-4-yl)-5-oxopentanamide]-5-chloro-2-hydroxybenzene-1-sulfonic acid] | 3.1 | – | – | – |
| Cc1c(Cl)cc(NC(=S)NC[C@H](N)C(=O)O)cc1S(=O)(=O)O [Example 48, (2S)-2-amino-3-{[(3-chloro-4-methyl-5-sulfophenyl)carbamothioyl]amino}propanoic acid] | – | – | promoted water absorption in a dose-depending manner | injury area of small intestine ([1]; non-fasting rat, 3, 10 or 30 mg/kg oral, FIG. 4): showed a tendency to improve the injury area |
